Reference: the NIST ThermoML archive (doi:10.1021/acs.jced.7b01073)
± gives the expanded uncertainty stated by the source.

Details: Liquid, Closed cell (Static) method

Compound	vapor or sublimation pressure (283.15 K) [kPa]	vapor or sublimation pressure (293.15 K) [kPa]	vapor or sublimation pressure (303.15 K) [kPa]	vapor or sublimation pressure (313.15 K) [kPa]	vapor or sublimation pressure (323.15 K) [kPa]
CCCC [butane]	148.1 ± 1	207.2 ± 1	283.4 ± 1.1	378.6 ± 1.1	496.5 ± 1.2
C=C(F)C(F)(F)F [2,3,3,3-tetrafluoro-1-propene]	437.9 ± 7	591.5 ± 7.1	782.9 ± 7.1	1018.2 ± 7.2	1302.4 ± 7.2
